# Measured values reported in ChEMBL document CHEMBL1201862, “PubChem BioAssay data set” (2004).
#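 All cell lines were grown in 96-well plates and treated with compound for 48 hours. GI50 is the concentration that inhibits growth by half.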 Active and inactive are the calls of the source. Rule as the data show it: active = GI50 up to about 1.1 µM and inactive = higher.
# Columns and labels:
# Assay in all cases: NCI anticancer screen, dose series, 48 h
# [1] = test system: RXF 393
# [2] = test system: HCT-116
# [3] = test system: SNB-19
# [4] = test system: OVCAR-3
# [5] = test system: M19-MEL
# [6] = test system: OVCAR-4
# [7] = test system: ACHN
# [8] = test system: SK-MEL-28
# [9] = test system: LOX IMVI
# [10] = test system: NCI-H460
# [11] = test system: TK-10
# [12] = test system: HT-29
# [13] = test system: CAKI-1
# [14] = test system: SK-MEL-5
# [15] = test system: SNB-78
# [16] = test system: SN12C
# [17] = test system: UACC-257
# [18] = test system: K562
# [19] = test system: COLO 205
# [20] = test system: SW-620
# [21] = test system: NCI-H226
# [22] = test system: 786-0
# [23] = test system: DMS-114
# [24] = test system: NCI-H522
# [25] = test system: KM12
# [26] = test system: A498
# [27] = test system: DMS-273
# [28] = test system: SF-268
# [29] = test system: A549
# [30] = test system: UACC-62
# [31] = test system: SNB-75
# [32] = test system: HCT-15
# [33] = test system: XF498
# [34] = test system: UO-31
# [35] = test system: KM-20L2
# [36] = test system: MOLT-4
# [37] = test system: OVCAR-5
# [38] = test system: LXFL 529
# [39] = test system: SF-539
# [40] = test system: RXF 631
# [41] = test system: HOP-62
# [42] = test system: RPMI-8226
# [43] = test system: OVCAR-8
# [44] = test system: IGROV-1
# [45] = test system: U-251
# [46] = test system: SF-295
# [47] = test system: Malme-3M
# [48] = test system: SK-MEL-2
# [49] = test system: SR
# [50] = test system: M14
# [51] = test system: HCC 2998
# [52] = test system: NCI-H23
# [53] = test system: DLD-1
# [54] = test system: CCRF-CEM
# [55] = test system: EKVX
# [56] = test system: SK-OV-3
# [57] = test system: HL-60
# [58] = test system: HOP-92
# [59] = test system: HOP-18
structure (smiles),measurement,setting,value
CCOC(=O)[C@H]1Nc2ccccc2C2c3ccccc3CC21 (stereo partly specified),GI50,[1],3.3 µM (inactive)
same,GI50,[2],41.5 µM (inactive)
same,GI50,[3],> 100 µM (inactive)
same,GI50,[4],29.6 µM (inactive)
same,GI50,[5],74.3 µM (inactive)
same,GI50,[6],38.2 µM (inactive)
same,GI50,[7],> 100 µM (inactive)
same,GI50,[8],34.2 µM (inactive)
same,GI50,[9],> 100 µM (inactive)
same,GI50,[10],38.6 µM (inactive)
same,GI50,[11],> 100 µM (inactive)
same,GI50,[12],19 µM (inactive)
same,GI50,[13],> 100 µM (inactive)
same,GI50,[14],21.8 µM (inactive)
same,GI50,[15],> 100 µM (inactive)
same,GI50,[16],29.4 µM (inactive)
same,GI50,[17],22 µM (inactive)
same,GI50,[18],38.9 µM (inactive)
same,GI50,[19],64.4 µM (inactive)
same,GI50,[20],36.8 µM (inactive)
same,GI50,[21],> 100 µM (inactive)
same,GI50,[22],> 100 µM (inactive)
same,GI50,[23],88.1 µM (inactive)
same,GI50,[24],16.4 µM (inactive)
same,GI50,[25],71 µM (inactive)
same,GI50,[26],24.9 µM (inactive)
same,GI50,[27],74 µM (inactive)
same,GI50,[28],> 100 µM (inactive)
same,GI50,[29],78.3 µM (inactive)
same,GI50,[30],53.3 µM (inactive)
same,GI50,[31],39.5 µM (inactive)
same,GI50,[32],49 µM
same,GI50,[33],> 100 µM (inactive)
same,GI50,[34],68.4 µM (inactive)
same,GI50,[35],39.4 µM (inactive)
same,GI50,[36],24.4 µM (inactive)
same,GI50,[37],31.7 µM (inactive)
same,GI50,[38],41.6 µM (inactive)
same,GI50,[39],> 100 µM (inactive)
same,GI50,[40],> 100 µM (inactive)
same,GI50,[41],> 100 µM (inactive)
same,GI50,[42],37.9 µM (inactive)
same,GI50,[43],48.5 µM (inactive)
same,GI50,[44],> 100 µM (inactive)
same,GI50,[45],> 100 µM (inactive)
same,GI50,[46],49 µM (inactive)
same,GI50,[47],> 100 µM (inactive)
same,GI50,[48],> 100 µM (inactive)
same,GI50,[49],27.4 µM (inactive)
same,GI50,[50],> 100 µM (inactive)
same,GI50,[51],48.3 µM (inactive)
same,GI50,[52],79.6 µM (inactive)
same,GI50,[53],51.4 µM (inactive)
O=C1CCCC(=O)N1CCc1c[nH]c2ccccc12,GI50,[1],> 100 µM (inactive)
same,GI50,[2],> 100 µM (inactive)
same,GI50,[3],> 100 µM (inactive)
same,GI50,[4],> 100 µM (inactive)
same,GI50,[5],> 100 µM (inactive)
same,GI50,[6],> 100 µM (inactive)
same,GI50,[7],> 100 µM (inactive)
same,GI50,[8],> 100 µM (inactive)
same,GI50,[54],> 100 µM (inactive)
same,GI50,[10],> 100 µM (inactive)
same,GI50,[11],> 100 µM (inactive)
same,GI50,[12],> 100 µM (inactive)
same,GI50,[13],> 100 µM (inactive)
same,GI50,[14],> 100 µM (inactive)
same,GI50,[15],> 100 µM (inactive)
same,GI50,[16],> 100 µM (inactive)
same,GI50,[17],> 100 µM (inactive)
same,GI50,[18],> 100 µM (inactive)
same,GI50,[20],> 100 µM (inactive)
same,GI50,[21],80.9 µM (inactive)
same,GI50,[22],> 100 µM (inactive)
same,GI50,[23],> 100 µM (inactive)
same,GI50,[55],> 100 µM (inactive)
same,GI50,[25],> 100 µM (inactive)
same,GI50,[26],77.3 µM (inactive)
same,GI50,[27],> 100 µM (inactive)
same,GI50,[28],> 100 µM (inactive)
same,GI50,[29],> 100 µM (inactive)
same,GI50,[30],> 100 µM (inactive)
same,GI50,[31],> 100 µM (inactive)
same,GI50,[56],> 100 µM (inactive)
same,GI50,[33],> 100 µM (inactive)
same,GI50,[34],> 100 µM (inactive)
same,GI50,[35],> 100 µM (inactive)
same,GI50,[36],> 100 µM (inactive)
same,GI50,[37],> 100 µM (inactive)
same,GI50,[38],> 100 µM (inactive)
same,GI50,[39],> 100 µM (inactive)
same,GI50,[40],> 100 µM (inactive)
same,GI50,[41],> 100 µM (inactive)
same,GI50,[43],> 100 µM (inactive)
same,GI50,[44],> 100 µM (inactive)
same,GI50,[45],> 100 µM (inactive)
same,GI50,[46],> 100 µM (inactive)
same,GI50,[47],> 100 µM (inactive)
same,GI50,[57],> 100 µM (inactive)
same,GI50,[48],> 100 µM (inactive)
same,GI50,[49],> 100 µM (inactive)
same,GI50,[58],> 100 µM (inactive)
same,GI50,[50],> 100 µM (inactive)
same,GI50,[51],> 100 µM (inactive)
same,GI50,[52],> 100 µM (inactive)
same,GI50,[53],> 100 µM (inactive)
N#C/C(N)=N/c1ccccc1,GI50,[2],> 100 µM (inactive)
same,GI50,[3],> 100 µM (inactive)
same,GI50,[4],> 100 µM (inactive)
same,GI50,[5],> 100 µM (inactive)
same,GI50,[6],> 100 µM (inactive)
same,GI50,[7],> 100 µM (inactive)
same,GI50,[8],> 100 µM (inactive)
same,GI50,[9],68.7 µM (inactive)
same,GI50,[54],> 100 µM (inactive)
same,GI50,[10],> 100 µM (inactive)
same,GI50,[11],> 100 µM (inactive)
same,GI50,[12],> 100 µM (inactive)
same,GI50,[13],> 100 µM (inactive)
same,GI50,[14],> 100 µM (inactive)
same,GI50,[59],> 100 µM (inactive)
same,GI50,[16],> 100 µM (inactive)
same,GI50,[18],71 µM (inactive)
same,GI50,[19],> 100 µM (inactive)
same,GI50,[20],> 100 µM (inactive)
same,GI50,[21],> 100 µM (inactive)
same,GI50,[22],> 100 µM (inactive)
same,GI50,[23],16.9 µM (inactive)
same,GI50,[24],> 100 µM (inactive)
same,GI50,[55],> 100 µM (inactive)
same,GI50,[25],> 100 µM (inactive)
same,GI50,[26],> 100 µM (inactive)
same,GI50,[27],> 100 µM (inactive)
same,GI50,[28],> 100 µM (inactive)
same,GI50,[29],> 100 µM (inactive)
same,GI50,[30],> 100 µM (inactive)
same,GI50,[31],> 100 µM (inactive)
same,GI50,[32],> 100 µM
same,GI50,[56],> 100 µM (inactive)
same,GI50,[34],> 100 µM (inactive)
same,GI50,[35],> 100 µM (inactive)
same,GI50,[36],> 100 µM (inactive)
same,GI50,[37],> 100 µM (inactive)
same,GI50,[38],> 100 µM (inactive)
same,GI50,[39],> 100 µM (inactive)
same,GI50,[40],> 100 µM (inactive)
same,GI50,[41],> 100 µM (inactive)
same,GI50,[42],> 100 µM (inactive)
same,GI50,[43],> 100 µM (inactive)
same,GI50,[44],> 100 µM (inactive)
same,GI50,[45],> 100 µM (inactive)
same,GI50,[46],> 100 µM (inactive)
same,GI50,[47],> 100 µM (inactive)
same,GI50,[57],> 100 µM (inactive)
same,GI50,[48],> 100 µM (inactive)
same,GI50,[49],> 100 µM (inactive)
same,GI50,[58],> 100 µM (inactive)
same,GI50,[50],> 100 µM (inactive)
same,GI50,[51],> 100 µM (inactive)
same,GI50,[52],> 100 µM (inactive)
same,GI50,[53],> 100 µM (inactive)
CCOC(=O)C1(c2ccccc2)CCC(=O)CC1,GI50,[1],> 100 µM (inactive)
same,GI50,[2],> 100 µM (inactive)
same,GI50,[3],> 100 µM (inactive)
same,GI50,[4],> 100 µM (inactive)
same,GI50,[5],> 100 µM (inactive)
same,GI50,[6],> 100 µM (inactive)
same,GI50,[7],> 100 µM (inactive)
same,GI50,[8],> 100 µM (inactive)
same,GI50,[9],> 100 µM (inactive)
same,GI50,[54],> 100 µM (inactive)
same,GI50,[10],> 100 µM (inactive)
same,GI50,[11],> 100 µM (inactive)
same,GI50,[12],> 100 µM (inactive)
same,GI50,[13],> 100 µM (inactive)
same,GI50,[14],> 100 µM (inactive)
same,GI50,[15],> 100 µM (inactive)
same,GI50,[59],> 100 µM (inactive)
same,GI50,[16],> 100 µM (inactive)
same,GI50,[17],> 100 µM (inactive)
same,GI50,[18],> 100 µM (inactive)
same,GI50,[19],> 100 µM (inactive)
same,GI50,[20],> 100 µM (inactive)
same,GI50,[21],> 100 µM (inactive)
same,GI50,[22],> 100 µM (inactive)
same,GI50,[23],> 100 µM (inactive)
same,GI50,[24],> 100 µM (inactive)
same,GI50,[55],> 100 µM (inactive)
same,GI50,[25],> 100 µM (inactive)
same,GI50,[26],> 100 µM (inactive)
same,GI50,[27],> 100 µM (inactive)
same,GI50,[28],> 100 µM (inactive)
same,GI50,[29],> 100 µM (inactive)
same,GI50,[30],> 100 µM (inactive)
same,GI50,[31],> 100 µM (inactive)
same,GI50,[32],> 100 µM
same,GI50,[56],> 100 µM (inactive)
same,GI50,[34],> 100 µM (inactive)
same,GI50,[35],> 100 µM (inactive)
same,GI50,[36],> 100 µM (inactive)
same,GI50,[37],> 100 µM (inactive)
same,GI50,[38],> 100 µM (inactive)
same,GI50,[40],> 100 µM (inactive)
same,GI50,[41],> 100 µM (inactive)
same,GI50,[43],> 100 µM (inactive)
same,GI50,[44],> 100 µM (inactive)
same,GI50,[45],> 100 µM (inactive)
same,GI50,[46],> 100 µM (inactive)
same,GI50,[47],> 100 µM (inactive)
same,GI50,[57],> 100 µM (inactive)
same,GI50,[48],> 100 µM (inactive)
same,GI50,[58],> 100 µM (inactive)
same,GI50,[50],> 100 µM (inactive)
same,GI50,[51],> 100 µM (inactive)
same,GI50,[52],> 100 µM (inactive)
same,GI50,[53],> 100 µM (inactive)
